Measurements published in paper PMC6018746, “Activation of the p53-MDM4 regulatory axis defines the anti-tumour response to PRMT5 inhibition through its role in regulating cellular splicing” (Scientific Reports, 2018).
Where two headings read alike, the source gives them in different places.

Tested on: panel of hematologic and solid cancer lines
Assay: 6-day in vitro growth/death assay
Assay type: cell-based, human
Conditions: read-out: gIC50
Experimental: To further develop these molecules and to guide clinical strategy, it was necessary to understand sensitivity in preclinical models by assessing the anti-tumour activity of the PRMT5 inhibitors in various cancers.
Cell lines were obtained from ATCC or DSMZ and were grown in recommended medium, which was most frequently RPMI-1640 containing 10% FBS. Cell line proliferation assays, Western blotting, qRT-PCR, and cell cycle analyses were performed as described previously[27],[28]. Antibody and gene expression reagents are as described in Supplementary Table 16. All studies were conducted in accordance with the GSK Policy on the Care, Welfare and Treatment of Laboratory Animals and were reviewed by the Institutional Animal Care and Use Committee either at GSK or by the ethical review process at the institution where the work was performed. Detailed descriptions of all methods can be found in the Supplemental Materials.

O=C(NC[C@H](O)CN1CCc2ccccc2C1)c1ccnc(NC2CCC2)c1 [GSK3203591]
IC50 (Homo sapiens, NCI-H747, NCIH747): 1500 nM
IC50 (Homo sapiens, NCI-H1048, NCI-H1048): 252 nM
IC50 (Homo sapiens, NCI-H1299, NCI-H1299): 419 nM
IC50 (Homo sapiens, NCI-H1437, NCI-H1437): 467 nM
IC50 (Homo sapiens, NCI-H1563, NCI-H1563): > 29300 nM
IC50 (Homo sapiens, NCI-H1581, NCI-H1581): 12800 nM
IC50 (Homo sapiens, NCI-H1648, NCI-H1648): 20700 nM
IC50 (Homo sapiens, NCI-H1650, NCI-H1650): 8770 nM
IC50 (Homo sapiens, NCI-H1651, NCI-H1651): 15300 nM
IC50 (Homo sapiens, NCI-H1915, NCI-H1915): 1130 nM
IC50 (Homo sapiens, NCI-H1975, NCI-H1975): 289 nM
IC50 (Homo sapiens, NCI-H2087, NCI-H2087): 510 nM
IC50 (Homo sapiens, NCI-H2170, NCI-H2170): 6390 nM
IC50 (Homo sapiens, NKM-1): 7.6 nM
IC50 (Homo sapiens, NOMO-1, NOMO-1): 7320 nM
IC50 (Homo sapiens, NU-DHL-1, NU-DHL-1): 101 nM
IC50 (Homo sapiens, NU-DUL-1, NU-DUL-1): 548 nM
IC50 (Homo sapiens, OCI-AML-3, OCI-AML3): 373 nM
IC50 (Homo sapiens, OCI-AML-5, OCI-AML5): 297 nM
IC50 (Homo sapiens, OCI-LY19, OCI-LY-19): 101 nM
IC50 (Homo sapiens, OCI-Ly1, OCILY-1): > 29300 nM
IC50 (Homo sapiens, OCI-Ly3, OCI-LY3): 1510 nM
IC50 (Homo sapiens, OCI-Ly10, OCILY-10): 4470 nM
IC50 (Homo sapiens, OCI-Ly18, OCI-LY-18): 30.8 nM
IC50 (Homo sapiens, OCI-M1, OCI-M1): 130 nM
IC50 (Homo sapiens, OPM-2, OPM-2): 40.2 nM
IC50 (Homo sapiens, PANC-1, PANC-1): 939 nM
IC50 (Homo sapiens, PANC-03-27, PANC-03.27): 2480 nM
IC50 (Homo sapiens, PANC-08-13, PANC-08.13): 136 nM
IC50 (Homo sapiens, PC-3, PC-3): 1890 nM
IC50 (Homo sapiens, PC-9, PC9): 95 nM
IC50 (Homo sapiens, PER-403, PER-403): 29.2 nM
IC50 (Homo sapiens, PER-624): 526 nM
IC50 (Homo sapiens, PER-704): 374 nM
IC50 (Homo sapiens, PL-21, PL-21): 329 nM
IC50 (Homo sapiens, PSN1, PSN-1): 504 nM
IC50 (Homo sapiens, PaTu 8988t, PA-TU-8988T): > 29300 nM
IC50 (Homo sapiens, Panc 02.03, PANC-02.03): 1370 nM
IC50 (Homo sapiens, Panc 04.03, PANC-04.03): 622 nM
IC50 (Homo sapiens, Panc1005, PANC-10.05): 2080 nM
IC50 (Homo sapiens, Pfeiffer): 352 nM
IC50 (Homo sapiens, RCK8, RCK8): 2110 nM
IC50 (Homo sapiens, RIVA): 68.4 nM
IC50 (Homo sapiens, RKO): 2210 nM
IC50 (Homo sapiens, RL): 1430 nM
IC50 (Homo sapiens, RPMI-6666, RPMI-6666): 2710 nM
IC50 (Homo sapiens, RPMI-8226, RPMI-8226): 135 nM
IC50 (Homo sapiens, RPMI-8226-DOX): 204 nM
IC50 (Homo sapiens, RPMI-8226-LR5): 303 nM
IC50 (Homo sapiens, RPMI-8226-MR20): 384 nM
IC50 (Homo sapiens, RT-112, RT-112): 1110 nM
IC50 (Homo sapiens, RVH-421, RVH-421): > 29300 nM
IC50 (Homo sapiens, Rec1, REC-1): 1990 nM
IC50 (Homo sapiens, SC-1, SC-1): 117 nM
IC50 (Homo sapiens, SCaBER): 255 nM
IC50 (Homo sapiens, SF-126, SF-126): 386 nM
IC50 (Homo sapiens, SF-295, SF295): 9840 nM
IC50 (Homo sapiens, SF-539, SF539): 75 nM
IC50 (Homo sapiens, SH-4, SH-4): 2560 nM
IC50 (Homo sapiens, SHI-1): 358 nM
IC50 (Homo sapiens, SIG-M5, SIG-M5): 316 nM
IC50 (Homo sapiens, SK-BR-3, SK-BR-3): 132 nM
IC50 (Homo sapiens, SK-CO-1, SK-CO-1): 473 nM
IC50 (Homo sapiens, SK-LU-1, SK-LU-1): 881 nM
IC50 (Homo sapiens, SK-MEL-5, SK-MEL-5): 111 nM
IC50 (Homo sapiens, SK-MES-1, SK-MES-1): 18500 nM
IC50 (Homo sapiens, SK-MM-2, SK-MM-2): 1260 nM
IC50 (Homo sapiens, SK-NEP-1, SK-NEP-1): 2240 nM
IC50 (Homo sapiens, SK-UT-1, SK-UT-1): 393 nM
IC50 (Homo sapiens, SKM-1, SKM-1): 110 nM
IC50 (Homo sapiens, SKNO-1, SKNO-1): 563 nM
IC50 (Homo sapiens, SNU-16, SNU16): 175 nM
IC50 (Homo sapiens, SNU-C1, SNUC1): 1520 nM
IC50 (Homo sapiens, SR-786, SR-786): 32.8 nM
IC50 (Homo sapiens, SU-DHL10, SU-DHL-10): 495 nM
IC50 (Homo sapiens, SU-DHL-2, SU-DHL-2): 86 nM
IC50 (Homo sapiens, SU-DHL-4, SU-DHL-4): 571 nM
IC50 (Homo sapiens, SU-DHL-5, SU-DHL-5): 132 nM
IC50 (Homo sapiens, SU-DHL-6, SU-DHL-6): 12.9 nM
IC50 (Homo sapiens, SU-DHL-8, SU-DHL-8): 1220 nM
IC50 (Homo sapiens, SU-DHL-16, SU-DHL-16): 124 nM
IC50 (Homo sapiens, SW48, SW48): 9340 nM
IC50 (Homo sapiens, SW480, SW480): 2260 nM
IC50 (Homo sapiens, SW780, SW-780): 450 nM
IC50 (Homo sapiens, SW837, SW837): 9150 nM
IC50 (Homo sapiens, SW900, SW900): 7970 nM
IC50 (Homo sapiens, SW982, SW982): 369 nM
IC50 (Homo sapiens, SW1271, SW1271): 3180 nM
IC50 (Homo sapiens, SW1417, SW-1417): 19600 nM
IC50 (Homo sapiens, SW1573, SW1573): 11400 nM
IC50 (Homo sapiens, SW1710, SW-1710): 10000 nM
IC50 (Homo sapiens, SW1990, SW-1990): 125 nM
IC50 (Homo sapiens, SW-403, SW403): 9760 nM
IC50 (Homo sapiens, SW-620, SW620): 1350 nM
IC50 (Homo sapiens, T47D, T-47D): 225 nM
IC50 (Homo sapiens, T84, T84): 1680 nM
IC50 (Homo sapiens, T98MG): 1300 nM
IC50 (Homo sapiens, T-24, T24): 650 nM
IC50 (Homo sapiens, TCC-SUP, TCCSUP): 11200 nM
IC50 (Homo sapiens, TF-1, TF-1): 138 nM
IC50 (Homo sapiens, THP-1, THP-1): 951 nM
IC50 (Homo sapiens, Toledo): 443 nM
IC50 (Homo sapiens, U138-MG, U138MG): > 29300 nM
IC50 (Homo sapiens, U266B1): 652 nM
IC50 (Homo sapiens, U2932, U2932): 336 nM
IC50 (Homo sapiens, U-87 MG): 128 nM
IC50 (Homo sapiens, U-251, U251MG): 3490 nM
IC50 (Homo sapiens, U-937, U937): 48.6 nM
IC50 (Homo sapiens, U-2940, U2940): 2350 nM
IC50 (Homo sapiens, UMC-11, UMC11): 10700 nM
IC50 (Homo sapiens, UMUC3, UM-UC-3): 19200 nM
IC50 (Homo sapiens, VCaP): > 29300 nM
IC50 (Homo sapiens, VM-CUB-1, VM-CUB1): 1580 nM
IC50 (Homo sapiens, WM 266-4, WM-266-4): 17200 nM
IC50 (Homo sapiens, WSU-FSCCL): 268 nM
IC50 (Homo sapiens, WSU-NHL): 75.7 nM
IC50 (Homo sapiens, WSUDLCL2, WSU-DLCL2): 652 nM
IC50 (Homo sapiens, WiDr): 438 nM
IC50 (Homo sapiens, YH13): > 29300 nM
IC50 (Homo sapiens, YKG-1, YKG1): 254 nM
IC50 (Homo sapiens, Z-138, Z-138): 13.6 nM
IC50 (Homo sapiens, ZR-75-1, ZR-75-1): 2620 nM
IC50 (Homo sapiens, majority (147/276) of cell lines): < 1000 nM
IC50 (J82): 20900 nM
IC50 (JM1): 76 nM
IC50 (JVM-2): 172 nM
IC50 (JeKo-1): 6190 nM
IC50 (LN-229): 1150 nM
IC50 (MAVER-1): 133 nM
IC50 (MCF-7): 215 nM
IC50 (MDA-MB-231): 2930 nM
IC50 (MINO): 536 nM
IC50 (NCI-H526-R): 219 nM
IC50 (NCI-H526): 138 nM
IC50 (PER-403): 29 nM
IC50 (PER-624): 526 nM
IC50 (PER-704): 375 nM
IC50 (Pfeiffer): 352 nM
IC50 (RCK8): 2110 nM
IC50 (REC-1): 1990 nM
IC50 (RIVA): 68 nM
IC50 (RL): 1430 nM
IC50 (SF295): 9840 nM
IC50 (SK-BR-3): 131 nM
IC50 (SU-DHL-4): 571 nM
IC50 (SU-DHL-5): 132 nM
IC50 (SU-DHL-6): 13 nM
IC50 (SU-DHL-8): 1220 nM
IC50 (SU-DHL-10): 495 nM
IC50 (SU-DHL-16): 124 nM
IC50 (SW-780): 451 nM
IC50 (T24): 650 nM
IC50 (U251MG): 3490 nM
IC50 (U937): 49 nM
IC50 (U2932): 336 nM
IC50 (U2940): 2350 nM
IC50 (U-87MG): 127 nM
IC50 (UM-UC-3): 19200 nM
IC50 (WSU-DLCL2): 651 nM
IC50 (Z-138): 14 nM
IC50 (ZR-75-1): 2620 nM
